Reference: US20210392935A1, “PREPARATION COMPRISING A PROBIOTIC STRAIN OF THE GENUS BACILLUS MEGATERIUM AND A POLYUNSATURATED FATTY ACID COMPONENT” (Evonik Operations GmbH, priority 2018, published 2021)

Tests used:
Assay type in all cases: cell-based
[1] = system: Bacillus megaterium DSM 32963 cells; assay: Lipidometabolomics (UPLC-MS/MS) of PUFA oxygenation products in supernatants of B. megaterium DSM 32963 with AvailOm; details: for abundance with dispersion formulation and/or bile acids compared to AvailOm alone (in words): B. megaterium DSM 32963 supernatants; for Extracellular concentration of PUFA oxygenation product: − bile acids, net of cell-free control
Experimental: To investigate the amount of extracellularly appearing 18-HEPE, the B. megaterium DSM 32963 cells were cultivated as described in example 1. The cells were resuspended in 10 ml LBG or LBG containing 9.76 g/I FeSSIF-V2 (biorelevant.com), which is a mixture of taurocholate, phospholipids and other components designed to simulate bile surfactants, and 2 ml of supplements (table 2) were added, respectively. Additionally, the supplements were also added respectively to the different media in shaking flasks without cells and treated under the same conditions (controls). The 18-HEPE concentrations of the culture supernatants and controls were determined after incubation at 16 h, 30° C. and 200 rpm (table 4). […] Of note, the omega-3 4 18-HEPE conversion rate detected by this method is up to 0.075, which exceeds the basal content of 18-HEPE of 0.0005% in an esterified fish oil, disclosed by WO 2017/041094. More importantly, we discovered that the omega-3 lysine salt is converted by Bacillus megaterium strains to a multitude of (final) SPM products at even higher concentrations than 18-HEPE (see example 6), which is of physiological relevance.
(§1) Bacterial supernatant samples were subjected to lipid extraction using RP-phase solid phase extraction and subsequently analyzed by ultra performance liquid chromatography ESI tandem mass spectrometry (UPLC-MS/MS) according to a published procedure. Under these conditions approximately 40 different LM, including 5-hydroxy-eicosapentaenoic acid 5-HEPE, 8-HEPE, 11-HEPE, 12-HEPE, 15-HEPE, 18-HEPE, 5-hydroxy-eicosatetraenoic acid (5-HETE), 8-HETE, 11-HETE, 12-HETE, 15-HETE, 4-hydroxy-DHA (4-HDHA), 7-HDHA, 13-HDHA, 14-HDHA, 17-HDHA, lipoxin A4 (LXA4), LXB4, resolvin E1 (RvE1), RvE3, resolvin D1-5 (RvD1-5), AT-RvD1, RvD2, protectin D1 (PD1), AT-PD1, maresin 1(MaR1), MaR2, plus 4 fatty acid substrates can be detected with a lower limit of detection of 1 pg.
To investigate if Bacillus megaterium is capable of producing other PUFA oxygenation products in addition to 18-HEPE, a lipidometabolomics screening of supernatants from Bacillus megaterium strain 32963 cultured as in example 4 with AvailOm® was performed, either dissolved or in a dispersion formulation, with or without bile acids. Cell-free preparations of AvailOm® formulations were treated and analyzed in parallel and served as controls for non-enzymatic, spontaneous formation of oxygenation products. Values given in table 6 display net concentrations of products formed, i.e. after subtraction of control values. […] Concentrations of several SPM exceed by far the concentrations of SPM found in human plasma samples, which are typically in a range of ˜20-100 pg/ml. For comparison, human breast milk contains ˜6.000 pg/ml RvE1 and ˜10.000 pg/ml RvD1 [42].

[2] = system: Bacillus megaterium DSM 33299; assay: Lipidometabolomics of supernatants of B. megaterium DSM 33299 with AvailOm dispersion; details: Bacillus megaterium DSM 33299, AvailOm dispersion; net concentrations
Description: as §1
(§2) 47 additional Bacillus megaterium strains sourced from various habitats were screened for their SPM production capacity to determine if this is a general phenomenon of the species Bacillus megaterium and to detect strain-specific differences in types and quantities of SPM being produced. Cells were cultured as detailed in example 4, with dispersion formulation of AvailOm® serving as omega-3 fatty acid source. Cell-free preparations of AvailOm® were treated and analyzed in parallel and served as controls for non-enzymatic, spontaneous formation of oxygenation products. […]

[3] = system: Bacillus megaterium DSM 33296; assay: Lipidometabolomics of supernatants of B. megaterium DSM 33296 with AvailOm dispersion; details: Bacillus megaterium DSM 33296, AvailOm dispersion; net concentrations
Description: as §1, §2

[4] = system: Bacillus megaterium strains; assay: Screen of 47 additional Bacillus megaterium strains for SPM production capacity; details: 47 additional strains, AvailOm dispersion
Description: as §1, §2

Row | Compound | abundance with dispersion formulation and/or bile acids compared to AvailOm alone (in words) [1] | other results
1 | 5-hydroxy-eicosatetraenoic acid [5-HETE] | lower | –
2 | 9-hydroxyoctadecadienoic acid [9-HODE] | lower | –
3 | 11-hydroxy-eicosapentaenoic acid [11-HEPE] | lower | –
4 | 12-hydroxy-eicosapentaenoic acid [12-HEPE] | lower | –
5 | CCC=CCC=CCC=CCC=CC=CC(O)CCCC(=O)O (stereo not shown) [5-HEPE, 5-hydroxy-eicosapentaenoic acid] | lower | –
6 | CCCCC/C=C\C/C=C\C=C\C(O)C/C=C\CCCC(=O)O (stereo not shown) [8-HETE, 8-hydroxy-eicosatetraenoic acid] | lower | –
7 | CC/C=C\CC(O)/C=C/C=C\C/C=C\C/C=C\CCCC(=O)O (stereo not shown) [15-HEPE, 15-hydroxy-eicosapentaenoic acid] | lower | –
8 | CCC(O)/C=C/C=C\C/C=C\C/C=C\C/C=C\CCCC(=O)O (stereo not shown) [18-HEPE, 18-hydroxy-eicosapentaenoic acid] | lower | –
9 | CC/C=C\C[C@H](O)/C=C/C=C\C=C\C=C\[C@@H](O)[C@@H](O)C/C=C\CCC(=O)O [RvD1, resolvin D1] | – | Extracellular concentration of PUFA oxygenation product [2]: 4389 pg/mL; Extracellular concentration of PUFA oxygenation product ([1]; AvailOm dispersion): 1863 pg/mL; Extracellular concentration of PUFA oxygenation product ([1]; AvailOm): 598 pg/mL; Extracellular concentration of PUFA oxygenation product [3]: 3626 pg/mL
10 | CC[C@H](O)C(O)/C=C/C=C/C=C\C/C=C\C/C=C\CCCC(=O)O (stereo partly shown) [RvE3, resolvin E3] | – | concentration in most of the strains [4]: up to 1.3 μg/ml
